Measurements from patent US20240301504A1, “MULTIANALYTE BIOMARKERS FOR LUNG CANCER” (The Curators of the University of Missouri, priority 2021, published 2024).

Tested on: H1975 cells
Assay: Trypan blue exclusion cell death assay in H1975 cells
Type: cell-based
Settings: Osimertinib 100 nM, 24 hrs, FIG. 13C
Protocol: miRNA Transfections and Osimertinib treatments miRNA stock was prepared by suspending in RNAse-free water. Cells were seeded such that they were 70-80% confluent at the time of transfection. Cells were allowed to adhere for 24 hrs and then transfected with 25 nM of miRNA inhibitors against hsa-miR184 (Sigma #HSTUD0282), hsa-miR22-3p (Sigma #HSTUD0393) or 100 nM of hsa-let7b-5p miRNA mimic (Sigma c #HMI0007) using Lipofectamine 3000 (Invitrogen #L3000001). Osimertinib (100 nM) was added an hour after transfection to cells. Cells were allowed to incubate with transfection mix for 24 hrs at 37° C., 5% CO2 and then washed with 1× PBS and trypsinized to be used for cell count and Western blotting.

Question: With `C=CC(=O)Nc1cc(Nc2nccc(-c3cn(C)c4ccccc34)n2)c(OC)cc1N(C)CCN(C)C` [Osimertinib] as the compound, how does the H1975 cell death read?
Answer: induced
